Source: PubChem BioAssay (NCI)
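All cell lines were grown in 96-well plates and treated with compound for 48 hours. TGI: concentration producing complete growth inhibition.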

Key:
Assay in all cases: NCI tumour cell line growth inhibition, 48 h
P388 leukemia = test system: P388 leukemia
P388/ADR leukemia = test system: P388/ADR leukemia
SN12K1 renal = test system: SN12K1 renal

Measured: TGI

CCCCCCc1ccc(O)cc1O
> 100 µM: all assays above
